On to `CSc1cc2c(cc1C(F)(F)F)N(C(=O)Nc1cccc(C(=O)NCCN3CCCC3)c1)CC2`, for which the melting point (commonly the temperature, or range, at which the solid turns liquid) is 91 to 93 °C.
Turning to `CC(=O)OCCc1c(N)cc(OCc2ccccc2)c2ccccc12`, the melting point lay in the range of 76 to 82 °C.
As to `Nc1ccccc1N1CCN(CCCOc2cccc3c2CCCC3)CC1`, the melting point lay within 100 to 101 °C.
`Cc1c(NC(=O)CC(C)(C)C)c(C)c2c(c1-c1ccc(F)nc1)OCC2c1ccc(C(C)C)cc1` (centres undefined) gave a melting point of 135 to 137 °C.
`Cc1n[nH]c(CC#N)c1Oc1cc(Cl)cc(Cl)c1`: the melting point lay in the range of 150 to 152 °C.
With `COc1cc2ccn(C(=O)c3ccc(-c4ccc(-c5noc(C)n5)cc4C)cc3)c2cc1OCCN(C)C` the figure was 130 to 131 °C.
On to `CCCN(CC(O)COc1ccc2c(=O)cc(-c3ccccc3)oc2c1)C(=O)OCc1ccccc1` (centres undefined), for which the melting point was in the range of 92 to 94 °C.
In turn, `CC(C)OC(=O)N1CCC(c2nc3cc(-c4ccc(-n5cnnn5)c(F)c4)ccc3o2)CC1` had a melting point of 187 to 191 °C.
With `N#Cc1ccc(Nn2cnnc2)cc1` the figure was 200 to 204 °C; with `O=Cc1cnc(-c2ccc(OC(F)(F)F)cc2)nc1`, 114 to 115 °C; with `CC(C#Cc1cccc(Oc2cccs2)c1)N(O)C(N)=O` (centres undefined), 110 to 112 °C.
In turn, `O=C1c2cccc(N(CCO)CCO)c2OC12CC2` showed a melting point of 74 to 76 °C.
As for `O=C1C(=O)c2ccccc2C2=C1SCC1(CCN(CCCCc3ccccc3)CC1)O2`, the melting point is 145 to 147 °C.
The molecule `CCOC(CBr)(OCC)c1csc(NC(=N)N)n1` gave a melting point of 157 to 158 °C.
On to `CCOC(=O)C1OC(n2cnc3c(N)ncnc32)C(O)C1N` (centres undefined), for which the melting point lay within 179 to 182 °C.
To `O=C(Cl)COc1ccc(Cl)cc1Cl` belongs 44 to 45 °C; to `O=C(NCc1ccc2c(c1)OCO2)c1ccc2[nH]c(=O)n(Cc3ccccc3)c(=O)c2c1`, 176 °C; to `COC1CN(CC2CCCO2)CCC1NC(=O)c1cc(Cl)c(N)c2c1OCCC2` (centres undefined), 158 °C.
To `Cc1cccc(C)c1N1C(=O)c2ccc(C(=O)O)cc2C1=O` belongs 210 to 213 °C; to `COc1cccc(-c2ccnc3c(C(N)=O)ncn23)c1`, 249 to 252 °C.
`COC(=O)c1cncc(OC)n1` showed a melting point of 73 °C.
With `CCCCCCCCCCOc1ccc(OCc2ccccc2)c(C(=O)O)c1` the figure was 63 to 65 °C; with `Cc1cccc(CNc2c(NC(C)(C)C)c(=O)c2=O)c1C`, 237 to 239 °C.
With `O=C1Cn2ncnc2-c2ccccc2N1` the figure was 223 °C.
`O=C1C(=Cc2ccccc2)CS(=O)(=O)CC1=Cc1ccccc1` yielded a melting point of 201 to 203 °C.
In turn, `O=C(NC1CCC(CCN2CCC(c3cccc4c3CCO4)CC2)CC1)C1CCCO1` (racemic) showed a melting point of 160 °C.
To `CCOC(=O)C(NC(=O)c1ccc(C)c(F)c1)C(=O)OCC` belongs 102 to 103 °C.
With `Cc1nc(N2C(=O)N(Cc3ccc(C(F)(F)F)cc3)CC2O)sc1C(=O)NCc1cccnc1` (centres undefined) the figure was 171 to 172 °C; with `O=C(O)CNC(=O)c1cccc(NC(=O)C(CS)Cc2ccccc2)c1` (centres undefined), 80 to 83 °C; with `CC(c1ccc(C(F)(F)F)cc1)N(O)C(N)=O` (centres undefined), 133 to 135 °C.
To `CP(C)(=O)CN1CCC(Oc2c(F)c(F)c(F)c(F)c2F)CC1` belongs 120 to 123 °C; to `CN(C)Cc1nnc(CN2C(=O)c3ccccc3C2=O)n1-c1ccc(Cl)cc1C(=O)c1ccccc1`, 206 to 208 °C.
`O=C(C1CCN(S(=O)(=O)c2ccc(Br)cc2)CC1)N1CCN(c2ccncn2)CC1` yielded a melting point of 171 to 174 °C.
In turn, `Nc1sc2c(c1C(=O)c1ccccn1)CCCC2` came in with a melting point of 191 to 193 °C.
With `Cc1cn(S(=O)(=O)c2cccc(C(C)(C)C)c2)c2ccc(C(F)(F)F)cc12` the figure was 90 to 108 °C; with `CCc1oc2ccccc2c1C(=O)NCc1ccc2c(Br)c(OCc3nnn[nH]3)ccc2c1`, 235 to 238 °C; with `Cc1nccn1CCCc1ccc(OCc2coc(/C=C/c3ccccc3)n2)cc1`, 93 to 94 °C.
To `C=CCC1C(=O)N(Cc2ccccc2)c2ccccc2NC1C` (centres undefined) belongs 81 to 83 °C; to `O=[N+]([O-])C=C1CN=C(c2ccccc2)c2cc(Cl)sc2N1`, 154 to 156 °C; to `COC(=O)C(C)(C)Cc1ccc(OCc2oc(-c3ccc(C(F)(F)F)cc3)cc2C(=O)O)cc1`, 153 to 155 °C.
With `CN(C)C(=S)Oc1ccc(CC#N)cc1` the figure was 120 to 124 °C.
Turning to `CC(C)(C)Nc1c(NCc2cccc(OC(F)(F)F)c2)c(=O)c1=O`, the melting point is 210 to 212 °C.
With `CN(CC(CCOS(C)(=O)=O)c1ccc(Cl)c(Cl)c1)C(=O)c1ccccc1` (centres undefined) the figure was 100 to 102 °C; with `O=C(O)c1ccc(COc2ccc3cc(-c4csc(-c5ccccc5)n4)ccc3c2Br)cc1`, 268 to 270 °C.
With `O=C(O)c1cn(-c2ccc(F)cc2)c2c(F)c(F)c(F)cc2c1=O` the figure was 261 to 263 °C.
`N#Cc1nn(-c2c(Cl)cc(C(F)(F)F)cc2Cl)c(N)c1-c1ccccc1Cl`: the melting point fell in the range of 192 to 193 °C.
To `COC(CNC(=O)CCl)OC` belongs 33 to 36 °C.
With `CC(C)CC(=O)Nc1cccc(-c2ccnc3c(Br)cnn23)c1` the figure was 132 to 134 °C.
In the case of `CCOC1CN(Cc2ccccc2OC)Cc2cc(OC)c(O)cc21` (centres undefined), the melting point was 101 to 102 °C.
For `Oc1ccc(-c2ccc(-c3ccccc3)nc2-c2ccc(OCCN3CCCC3)cc2)cc1`, the melting point lay within 176 to 178 °C.
To `CC1(C)C(=O)Nc2ccc(C#N)cc2N(CC2CC2)C1=O` belongs 234 to 236 °C.
For `CS(=O)(=O)c1ccc(-c2c(-c3ccc(Cl)cc3)[nH]c3ccc(Cl)cc23)cc1`, the melting point was in the range of 269 to 271 °C.
With `CC(OCCO)n1cc(F)c(=O)[nH]c1=O` (centres undefined) the figure was 118 to 120 °C; with `N#CC(C#N)C1(C#N)CCSc2ccccc21` (centres undefined), 136 to 137 °C.
With `Cc1onc(NS(=O)(=O)c2cc(-c3ncccn3)ccc2-c2ccccc2CN(C)C(=O)CC(C)(C)C)c1C` the figure was 120 to 128 °C.
`CCNC(=O)Nc1nc2cc(-c3cccnc3)cc(-c3nc(C)no3)n2n1` registered a melting point of 298 to 301 °C.
With `CCN(CC)CCOC(=N)N1CCC(c2nsc3ccccc23)CC1` the figure was 84 to 86 °C.
With `CC12CCC(C1)C1(C)Oc3ccc(C(O)c4ccc5cc(C(=O)O)ccc5c4)cc3C21C` (centres undefined) the figure was 146 to 148 °C; with `O=C1c2c(Cl)cccc2-n2cncc2[C@@H]2CCN12`, 207 to 208 °C.
Molecule `O=C1c2c(Cl)c(Cl)c(Cl)c(Cl)c2C(=O)N1c1ccccc1` had a melting point of 251 to 253 °C.
To `CCN1Cc2ccccc2C(=O)c2cc(CC(=O)O)ccc21` belongs 141 to 144 °C.
`CCCCCCCCCCCCCCCCCCOc1cc(SC)cc(N(CC(=O)O)CC(=O)O)c1` came in with a melting point of 129 to 130 °C.
For the molecule `FC(F)=Cc1nn(-c2c(Cl)cc(C(F)(F)F)cc2Cl)cc1C1CC1(Br)Br` (centres undefined), the melting point was 71 to 73 °C.
With `CCc1nc2c(=O)[nH]c(=O)n(C)c2nc1CC` the figure was 218 to 222 °C.

Source of the values: a melting point compilation (Tetko et al.; mined from patent text by program, amines drawn as free bases though some values may be those of a salt).
